Molecular target: T1, human serum albumin (HSA) (Homo sapiens, UniProt P02768)
T1 construct: gene ALB; mature full-length, 585 residues, 66500 Da, single chain
Test: intrinsic fluorescence quenching, double-log plot
Format: binding
Conditions: 20 °C, 0.01 M PBS pH 7.4, 1 μM HSA, 0-18 nM ligand, λex 280 nm
Excerpt: intrinsic fluorescence quenching, double-log plot on human serum albumin (HSA)

T1 sequence (P02768 25-609): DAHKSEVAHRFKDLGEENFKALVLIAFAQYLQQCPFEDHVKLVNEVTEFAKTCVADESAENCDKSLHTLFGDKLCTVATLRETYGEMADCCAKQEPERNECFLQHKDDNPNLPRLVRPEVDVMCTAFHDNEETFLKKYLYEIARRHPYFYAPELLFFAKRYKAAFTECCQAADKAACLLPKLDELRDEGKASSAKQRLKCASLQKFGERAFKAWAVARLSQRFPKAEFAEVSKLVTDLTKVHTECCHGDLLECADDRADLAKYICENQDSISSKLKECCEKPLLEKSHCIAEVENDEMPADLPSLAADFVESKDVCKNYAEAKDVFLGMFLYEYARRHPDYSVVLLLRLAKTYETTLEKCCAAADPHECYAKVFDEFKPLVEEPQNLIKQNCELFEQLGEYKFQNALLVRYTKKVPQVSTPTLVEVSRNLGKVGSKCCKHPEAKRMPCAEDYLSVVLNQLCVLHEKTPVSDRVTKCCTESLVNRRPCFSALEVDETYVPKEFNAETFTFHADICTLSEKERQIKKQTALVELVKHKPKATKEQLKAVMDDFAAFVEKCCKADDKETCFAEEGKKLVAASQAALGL

C[C@@]12C[C@@]3(O)O[C@@H](O1)[C@]1(COC(=O)c4ccccc4)[C@H]3C[C@@]12O[C@@H]1O[C@H](CO)[C@@H](O)[C@H](O)[C@H]1O [paeoniflorin]
Ka (mol.L^-1) ± SD: 7.39 × 10^4 ± 0.174 mol·L^-1

Source: paper PMC6017552, “Interaction between Saikosaponin D, Paeoniflorin, and Human Serum Albumin” (Molecules : A Journal of Synthetic Chemistry and Natural …, 2018)
